Series [1] has as its system MP-enriched adherent cells (AC). The series is described as follows: 51Cr release toxicity assay. Type of series: cell-based, human. How it is done: (§1) In some experiments, toxicity of Leu-Leu-OMe for a variety of cell populations was assessed by ^51 Cr release In assays where cells obtained from suspension culture were to be used, cells were labeled with Na2^51 CrO4 (ICN, Plainview, N.Y.) for 60-90 minutes at 37° C. and then washed three times. Cells were then suspended in PBS (2.5×10^6 /ml) and incubated in microtiter plates, 50 microL/well with indicated concentrations of Leu-Leu-OMe for 15 minutes at room temperature. […] Following ^51 Cr labeling, wells were thoroughly washed and varying concentrations of Leu-Leu-OMe added in 50 microL PBS and the plates incubated for 15 minutes at room temperature.
(§2) Following such initial serum-free incubations, 200 microL/well of medium RPMI containing 10% FBS were added and the plates incubated for another 4 hours prior to removal of 100 microliters of supernatant. Radioactivity in the supernatant was measured in an auto-gamma scintillation spectrometer (Packard Instrument Co., Downers Grove, Ill.). The percent specific release was calculated from the formula: [formula] in which maximal release refers to cpm obtained in wells containing 50% lysing agent (American Scientific Products, McGraw Park, Ill.) and spontaneous release refers to cpm released by cells incubated in control medium in the absence of Leu-Leu-OMe or the lysing agent.
(§3) In developing the data expressed in FIG. 7, cells (2.5×10^6 /ml) were exposed to the indicated concentrations of Leu-Leu-OMe for 15 minutes at room temperature, then specific ^51 Cr release during the next four hours was assessed.

In series [2] the test system is T4 enriched T cells. The series is described as follows: 51Cr release toxicity assay. Type of series: cell-based, human. As to the method:
as §1, §2, §3

In series [3] the test system is T8-enriched population. Description: 51Cr release toxicity assay. Type of series: cell-based, human. As to the method: as §1, §2, §3
Series [4] concerns Daudi. The series is described as follows: 51Cr release toxicity assay. Type of series: cell-based, human. To be noted: broad range of concentrations.
From the text: (§4) HS-Sultan, a human plasma cell line (Goldblum et al. (1973) Proc. Seventh Leucocyte Culture Conference, ed by Daguilland, Acad. Press N.Y. pp 15-28), Daudi, a B lymphoblastoid cell line (Klein et al. (1968) Cancer Res. V 28, p 1300), MoLT-4, an acute lymphoblastic T-cell leukemia line (Monowada et al. (1972) J. Nat'l Canc. Inst. V 49, p 891), and U-937, a human monocyte-like cell line (Koren et al. (1979) Nature V 279, p 891) were obtained from the American Type Culture Collection, Rockville, Md. These lines as well as HEp-2 a human epidermoid carcinoma line (a generous gift of Dr. R. Sontheimer, UTHSCD); Currie, a human renal cell carcinoma line (a generous gift of Dr. M. Prager, UTHSCD); and K562, a human erythroleukemia line (a generous gift of Dr. M. Bennett, UTHSCD) were maintained in culture in medium RMPI supplemented with 10% FBS. Human dermal fibroblasts (a generous gift of Dr. T. Geppert, UTHSCD) were serially passaged in culture as well while human umbilical vein endothelial cells (a generous gift of Dr. A. Johnson, UTHSCD) were used after one subculture Epttein Barr virus (EBV) transformed B lymphoblastoid cell lines JM.6 and SM.4 (kindly provided by Dr. J. Moreno, UTHSCD) and cloned EBV transformed B cell lines SDL-G2 and D8-219 (a generous gift of Drs. L. Stein and M. Dosch, Hospital for Sick Children, Toronto, Canada) were maintained in culture in medium RPMI supplemented with 10% FBS.
as §1
as §2, with “agent. Only experiments in which spontaneous release was […] were used for subsequent data interpretation.” for “agent.”
(§5) In developing the data expressed in FIG. 7, cells (2.5×10^6 /ml) were exposed to the indicated concentrations of Leu-Leu-OMe for 15 minutes at room temperature, then specific ^51 Cr release during the next four hours was assessed. Data for the EBV transformed lines JM.6, SDL-G2, D8-219, and SM.4, respectively, are shown in order from top to bottom.

Series [5] deals with EBV-transformed B cell lines or clones. Description: 51Cr release toxicity assay. Type of series: cell-based, human.
From the text: as §4, §1
as §2, with “agent. Only experiments in which spontaneous release was […] were used for subsequent data interpretation.” for “agent.”
as §5

For series [6], the system named is HS-Sultan. The series is described as follows: 51Cr release toxicity assay. Type of series: cell-based, human. To be noted: broad range of concentrations.
From the text: as §4, §1
as §2, with “agent. Only experiments in which spontaneous release was […] were used for subsequent data interpretation.” for “agent.”
as §5

Series [7] concerns K562. The series is described as follows: 51Cr release toxicity assay. The series is classed as cell-based, human.
From the text: as §4, §1
as §2, with “agent. Only experiments in which spontaneous release was […] were used for subsequent data interpretation.” for “agent.”
as §5

The test system of series [8] is MoLT-4. Description: 51Cr release toxicity assay. The series is classed as cell-based, human. To be noted: broad concentration range.
From the text: as §4, §1
as §2, with “agent. Only experiments in which spontaneous release was […] were used for subsequent data interpretation.” for “agent.”
as §5

Series [9] has as its system U937. Description: 51Cr release toxicity assay. The series is classed as cell-based, human.
From the text: as §4, §1
as §2, with “agent. Only experiments in which spontaneous release was […] were used for subsequent data interpretation.” for “agent.”
as §5

The subject of series [10] is B Cells. Description: Leu-Leu-OMe sensitivity of cell type. Type of series: cell-based, human.
Series [11] deals with spleen cells. Description: Spleen cell H-2 phenotype of transplanted mice (chimerism). The series is classed as in vivo, B6→B6D2F1 mice. To be noted: recipients of treated cells, up to 275 d after transplantation. How it is done:
Spleen cells from control mice (normal B6 or B6D2F1) and long-term BMTx survivors (B6→B6D2F1) were depleted of B cells by panning on goat anti-mouse immunoglobulin-coated petri dishes (15). Aliquots of B cell-depleted spleen cells were incubated either with antibody 30-5-7.S (anti-L^d), antibody 28-18-3.S (anti-k^b), or with a relevant isotype control antibody for 30 min at 4° C. Cells were then washed and incubated with a fluorescein isothiocyanate-labeled goat anti-mouse immunoglobulin (GAMIG-FITC, Cappell Laboratories, Cochranville, Pa.) and analyzed on a flow cytometer (Ortho system 50 HH, Ortho Diagnostics, Raritan, N.J.).
To see whether the donor hemopoietic system remained dominant over that of the irradiated recipient, we characterized the H-2 phenotype of spleen cells from the mice used in the survival experiments at various times after transplantation. Spleen cells from normal B6 (donor, H-2^b) and B6D2F1 (recipient, H-2^b /H-2^d) mice served as controls.

`COC(=O)[C@H](CC(C)C)NC(=O)[C@@H](N)CC(C)C` [Leu-Leu-OMe, L-leucyl-L-leucine methyl ester]: the 51Cr release entry in series [1] (25-50 micromolar) is on record as “minimal ^51 Cr release”; in series [2] (1000 micromolar), “caused minimal ^51 Cr release”; in series [3] (N-SRBC positive cells depleted of OKT4 positive cells), “produced high levels of ^51 Cr release”; in [5] (1 mM, some EBV lines), “less than 20%”; in series [5] (250 micromolar, other lines), 25-35%. Moreover, the “Leu--Leu--OMe Sensitivity (LD50)” value in series [1] (M--phi) is 75 micro-M; in [2] (T4 Cells), more than 500 micro-M; in series [3] (T-8 Cells), 250 micro-M; in series [10] it was more than 500 micro-M. Further, the “51Cr release and proliferative rate” value in series [4], in series [6] and in series [7] (100 micromolar or lower) was “no significant ^51 Cr release or alteration in subsequent proliferative rate” in each case. The “toxicity (51Cr release)” value in [5] (less than 250 micromolar) is reported as “no significant toxicity”; in series [8] it was “no detectable Leu-Leu-OMe toxicity over a broad concentration range”; in series [9] (concentration-dependent), “susceptible to concentration-dependent Leu-Leu-OMe toxicity”. Further, the “51Cr release and proliferative capacity” value in series [7] (higher than 100 micromolar) was “modest amounts of ^51 Cr release and partial loss of proliferative capacity”. For the same compound, in series [9], the “concentration above which extensive 51Cr release and no viable proliferating cell” value is given as “more than 250 micromolar”. The “reactivity of spleen cells with anti-H-2^b” value in series [11] is more than 95%. Moreover, the “reactivity of spleen cells with anti-H-2^d” value in [11] was less than 1%.

Source of the values: patent publication US5304474A, “Hydrophobic peptide esters and amides” (Board of Regents, The University of Texas System, priority 1991, dated 1994).
